Data as given in patent US12123031B2, “Regulation of CRISPR-associated rossman fold (CARF) domain containing proteins by oligoadenylates” (VILNIUS UNIVERSITY, priority 2017, dated 2024).
pKd: −log10 of the molar value.

Experiments:
ternary StCsm complex = target: T1, ternary StCsm complex (Streptococcus thermophilus, UniProt A0A0A7HFE1); experiment: StCsm mediated conversion of nucleoside triphosphates to reaction products (TLC); type: biochemical; conditions: 200 nM ternary StCsm, 50 μM nucleotide, 10 mM CoCl2, 37° C.
T1 construct: made in house; host or cells: Escherichia coli BL21 (DE3)
T1 sequence (A0A0A7HFE1 whole entry): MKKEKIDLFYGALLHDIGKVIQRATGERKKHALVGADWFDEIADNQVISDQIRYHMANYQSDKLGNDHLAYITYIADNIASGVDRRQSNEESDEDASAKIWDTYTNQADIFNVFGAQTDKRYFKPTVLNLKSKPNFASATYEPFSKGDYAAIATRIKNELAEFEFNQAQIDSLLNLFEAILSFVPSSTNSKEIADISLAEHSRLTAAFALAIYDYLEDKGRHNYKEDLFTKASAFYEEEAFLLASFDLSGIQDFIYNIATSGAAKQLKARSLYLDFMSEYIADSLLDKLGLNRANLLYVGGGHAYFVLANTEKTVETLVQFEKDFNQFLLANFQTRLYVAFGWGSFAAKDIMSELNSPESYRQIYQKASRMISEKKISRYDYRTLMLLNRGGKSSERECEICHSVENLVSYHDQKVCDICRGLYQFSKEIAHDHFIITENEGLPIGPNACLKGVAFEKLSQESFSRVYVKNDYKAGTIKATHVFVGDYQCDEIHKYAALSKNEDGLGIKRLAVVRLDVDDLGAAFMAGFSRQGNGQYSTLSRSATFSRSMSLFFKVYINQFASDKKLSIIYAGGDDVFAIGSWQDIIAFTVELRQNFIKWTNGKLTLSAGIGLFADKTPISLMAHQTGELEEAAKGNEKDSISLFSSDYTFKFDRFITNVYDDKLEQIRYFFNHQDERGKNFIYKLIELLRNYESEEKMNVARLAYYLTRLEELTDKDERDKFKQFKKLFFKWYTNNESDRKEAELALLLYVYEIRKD
T1 sequence (A0A0A7HGA1 whole entry, further chain): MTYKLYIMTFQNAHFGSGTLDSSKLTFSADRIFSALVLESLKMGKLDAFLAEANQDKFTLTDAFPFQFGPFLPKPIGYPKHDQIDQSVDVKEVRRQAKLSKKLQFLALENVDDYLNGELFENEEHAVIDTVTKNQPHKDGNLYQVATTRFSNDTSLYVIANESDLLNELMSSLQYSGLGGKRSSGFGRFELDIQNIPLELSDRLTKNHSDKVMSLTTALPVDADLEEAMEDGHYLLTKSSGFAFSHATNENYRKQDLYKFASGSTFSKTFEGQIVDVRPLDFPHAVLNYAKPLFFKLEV
T1 sequence (A0A0A7HIF0 whole entry, further chain): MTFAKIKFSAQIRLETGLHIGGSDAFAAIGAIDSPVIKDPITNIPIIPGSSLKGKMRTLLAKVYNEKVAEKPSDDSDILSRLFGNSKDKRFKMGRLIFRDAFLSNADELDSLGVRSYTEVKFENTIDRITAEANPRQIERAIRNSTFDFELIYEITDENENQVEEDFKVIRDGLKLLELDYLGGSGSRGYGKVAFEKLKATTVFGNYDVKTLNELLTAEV
T1 sequence (A0A0A7HIX1 whole entry, further chain): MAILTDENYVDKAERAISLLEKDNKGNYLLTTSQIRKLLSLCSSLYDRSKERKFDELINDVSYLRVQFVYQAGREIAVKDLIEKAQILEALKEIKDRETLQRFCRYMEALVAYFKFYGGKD
T1 sequence (A0A0A7HF79 whole entry, further chain): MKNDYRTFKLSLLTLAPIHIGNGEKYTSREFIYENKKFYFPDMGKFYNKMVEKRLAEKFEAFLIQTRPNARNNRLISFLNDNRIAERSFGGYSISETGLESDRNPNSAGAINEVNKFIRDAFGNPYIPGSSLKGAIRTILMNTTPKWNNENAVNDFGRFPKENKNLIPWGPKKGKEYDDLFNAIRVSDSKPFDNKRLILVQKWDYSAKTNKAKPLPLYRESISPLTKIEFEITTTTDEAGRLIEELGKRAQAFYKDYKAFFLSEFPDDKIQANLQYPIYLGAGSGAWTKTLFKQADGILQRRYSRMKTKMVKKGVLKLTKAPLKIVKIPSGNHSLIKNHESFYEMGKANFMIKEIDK
Protocol: StCsm mediated synthesis of cyclic oligoadenylates from ATP. The synthesis reactions of cyclic oligoadenylates by StCsm were initiated by adding 10 mM CoCl2 into a mix of 200 nM StCsm, 200 nM target RNA, 50 μM ATP and 10 nM α^32P-ATP in the Reaction buffer (33 mM Tris-acetate (pH 7.6 at 37° C.), 66 mM K-acetate, 0.1 mg/ml BSA) and carried out at 37° C. for 1 h or 1.5 h, unless stated otherwise. StCsm reactions on different nucleoside triphosphates contained 200 nM of ternary StCsm, 50 μM of the non-labeled nucleotide and 10 nM of the corresponding α^32P-nucleotide. The reactions were stopped by adding 15 mM EDTA. Reaction products were separated by TLC on PEI Cellulose F plates (Merck) in 0.5 M phosphate buffer (pH 3.5 at 23° C.) or a denaturating 24% (19:1 acrylamide:bis-acrylamide) PAAG and visualized using autoradiography.
(FIG. 1A) ATP reaction of an individual StCas10 subunit. The reactions contained 200 nM StCas10, 50 μM ATP, 10 nM α^32P-ATP (Perkin Elmer), 200 nM target RNA S3/2 and/or 5 nM M13 mp18 ssDNA. The assays were performed at 37° C. in the Reaction buffer supplemented with 10 mM CoCl2. Samples were analyzed by thin-layer chromatography (TLC), followed by phosphorimaging. Reaction products of the binary StCsm complex (Cas/Csm proteins plus crRNA) and ATP in the absence or in the presence of single-stranded (ss) DNA are presented in (FIG. 1B) and (FIG. 1C), respectively. Reaction products of the ternary StCsm complex (Cas/Csm proteins plus crRNA and target RNA) and ATP in the absence or in the presence of ssDNA are presented in (FIG. 1D) and (FIG. 1E), respectively. The reactions contained 200 nM of the binary or ternary StCsm, 50 μM ATP, 10 nM α^32P-ATP and 10 nM M13 mp18 ssDNA. The assays were performed at 37° C. in the Reaction buffer supplemented with 10 mM CoCl2 and the samples were analyzed by TLC, followed by phosphorimaging. Heating α^32P-ATP at 95° C. for 60 min was used to generate radiolabeled ADP and AMP, which were used as a TLC control (marked as lane M). Rate constants of ATP decay, which are presented bellow each TLC plate, were calculated by fitting single exponentials to the substrate depletion data. Cartoons above the graphs depict reaction components: protospacer is grey in between black lines, the complementary strand (matching spacer in crRNA) is lighter grey, DNA is a black circle.
(FIG. 3A) Cartoons above gels depict ternary StCsm complexes that differ in the bound target RNA molecules in the same manner as in FIG. 1. The agarose gels show degradation patterns of 1 nM of circular M13 mp18 ssDNA in the presence of 5 nM ternary StCsm complexes containing different RNAs FIG. 3A is reproduced from (1). All RNA substrates used here are bound and cleaved by the StCsm ribonuclease (2). (FIG. 3B) Reaction products of various ternary StCsm complexes with ATP. The reactions contained 200 nM of the ternary StCsm with different nucleic acids (NA), 50 μM ATP and 10 nM α^32P-ATP. The assays were performed at 37° C. in the Reaction buffer supplemented with 10 mM CoCl2 and the samples were analyzed by TLC, followed by phosphorimaging. Heating α^32P-ATP at 95° C. for 60 min was used to generate radiolabeled ADP and AMP, which were used as a TLC control (marked as lane M).
(A) Ternary StCsm complex was incubated with ATP, 2′dATP, 3′dATP, GTP, CTP or UTP radiolabeled nucleotides. The reactions contained 200 nM of the ternary StCsm, 50 μM of the non-labeled nucleotide and 10 nM of the corresponding α^32P-nucleotide. The assays were performed at 37° C. for 60 min in the Reaction buffer supplemented with 10 mM CoCl2 and samples were analyzed by TLC, followed by phosphorimaging. (B) The products of StCsm-mediated 2′dATP reaction were further analyzed by ion pair reverse-phase (RP) HPLC-MS. On the left panel, HPLC analysis is presented. On the right panels, the isotopic patterns of ions (without one, (M-H)-, or two (M-2H)2-protons) of the identified compounds are presented.

[1] = target: T2, StCsm complex (Palm domain of StCas10 subunit) (Streptococcus thermophilus, UniProt A0A0A7HFE1); experiment: Nucleotide binding assay (EMSA); conditions: for affinity towards nucleotide: EMSA, binary and ternary StCsm
T2 construct: made in house; host or cells: Escherichia coli BL21 (DE3)
T2 sequence (A0A0A7HFE1 whole entry, the tested form may be a part): as the sequence (A0A0A7HFE1 whole entry) above
T2 sequence (A0A0A7HF79 whole entry, further chain, the tested form may be a part): as the sequence (A0A0A7HF79 whole entry, further chain) above
T2 sequence (A0A0A7HIF0 whole entry, further chain, the tested form may be a part): as the sequence (A0A0A7HIF0 whole entry, further chain) above
T2 sequence (A0A0A7HGA1 whole entry, further chain, the tested form may be a part): as the sequence (A0A0A7HGA1 whole entry, further chain) above
T2 sequence (A0A0A7HIX1 whole entry, further chain, the tested form may be a part): as the sequence (A0A0A7HIX1 whole entry, further chain) above
Protocol: Nucleotide binding assay. Nucleotide binding assays were performed by incubating different amounts of StCsm complexes with 10 nM of ^32P-radiolabeled-nucleoside triphosphates in the Binding buffer (40 mM Tris, 20 mM acetic acid (pH 8.4 at 25° C.), 1 mM EDTA, 0.1 mg/ml BSA, 10% (v/v) glycerol). All reactions were incubated for 15 min at room temperature prior to electrophoresis on native 8% (w/v) polyacrylamide gel (PAAG). Electrophoresis was carried out at room temperature for 2 h at 6 V/cm using 40 mM Tris, 20 mM acetic acid (pH 8.4 at 25° C.), 0.1 mM EDTA as the running buffer. Gels were dried and visualized by a FLA-5100 phosphorimager (Fujifilm).
NTP binding by binary and ternary StCsm complexes was monitored using EMSA. The binding reactions contained 2 nM of α^32P-radiolabeled and 8 nM of the corresponding non-labeled nucleotide (ATP, 2′dATP, 3′dATP, GTP, UTP or CTP (Perkin Elmer)) in addition to the StCsm complex (without RNA, with the target RNA S3/2 or non-specific RNA NS, as denoted above the gels), at concentrations indicated by each lane. Samples were analyzed in PAAG under non-denaturing conditions.

StCsm6 = target: T3, StCsm6 (Streptococcus thermophilus, UniProt A0A0A7HIX6); experiment: Csm6 nuclease assay, StCsm6; type: biochemical
T3 construct: HSH (StrepII tag plus two 6xHis tags) (N); made in house; host or cells: E. coli DH10B (ara)
T3 sequence (A0A0A7HIX6 1-428): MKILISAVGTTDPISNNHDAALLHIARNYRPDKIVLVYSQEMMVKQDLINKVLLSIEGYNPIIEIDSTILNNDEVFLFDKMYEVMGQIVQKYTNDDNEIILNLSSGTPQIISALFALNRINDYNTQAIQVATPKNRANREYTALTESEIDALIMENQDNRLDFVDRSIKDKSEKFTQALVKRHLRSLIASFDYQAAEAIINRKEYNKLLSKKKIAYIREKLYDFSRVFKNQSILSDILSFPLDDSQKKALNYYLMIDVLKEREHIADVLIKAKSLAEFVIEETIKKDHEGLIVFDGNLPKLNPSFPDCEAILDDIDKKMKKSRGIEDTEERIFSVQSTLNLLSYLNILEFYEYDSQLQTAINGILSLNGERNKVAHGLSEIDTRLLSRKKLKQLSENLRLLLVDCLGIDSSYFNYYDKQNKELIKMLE
Protocol: Csm6 nuclease assay. […] 5′P-oligoadenylates were obtained by incubating 3.(3) μM of non-phosphorylated linear oligoadenylate with 0.5 U T4 polynucleotide kinase and 1 mM ATP in the Reaction buffer A at 37° C. for 40 min.
Reactions were started by adding 0-10 μM Csm6 and carried out at 37° C. The reaction products were separated on a denaturing 15% (29:1 acrylamide:bis-acrylamide) PAAG and visualized by autoradiography. StCsm6 nuclease assays with ATP additionally contained 1 mM of ATP in the reaction mixture.

StCsm6′ = target: T4, StCsm6′ (Streptococcus thermophilus, UniProt A0A0A7HFE6); experiment: Csm6 nuclease assay, StCsm6′; type: biochemical; conditions: ssRNA NS, 37° C. 30 min, 50 nM individual cyclic oligoadenylate
T4 construct: HSH (StrepII tag plus two 6xHis tags) (N); made in house; host or cells: E. coli DH10B (ara)
T4 sequence (A0A0A7HFE6 whole entry): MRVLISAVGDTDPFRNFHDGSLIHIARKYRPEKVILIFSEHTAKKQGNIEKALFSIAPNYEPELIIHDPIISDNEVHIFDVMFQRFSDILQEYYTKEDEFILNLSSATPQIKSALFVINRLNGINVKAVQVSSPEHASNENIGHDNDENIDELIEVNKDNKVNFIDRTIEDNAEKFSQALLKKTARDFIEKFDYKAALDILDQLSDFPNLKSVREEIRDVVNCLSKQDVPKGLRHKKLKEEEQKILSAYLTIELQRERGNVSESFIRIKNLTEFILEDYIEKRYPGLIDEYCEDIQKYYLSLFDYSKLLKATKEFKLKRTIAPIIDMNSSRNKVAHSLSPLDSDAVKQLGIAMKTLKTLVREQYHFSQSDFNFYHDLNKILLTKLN
Protocol: Csm6 nuclease assay. StCsm6, StCsm6′, and TtCsm6 nuclease assays were conducted in the Reaction buffer (33 mM Tris-acetate (pH 7.6 at 37° C.), 66 mM K-acetate, 0.1 mg/ml BSA) supplemented with 1 mM EDTA and containing 5 nM of 5′-radiolabeled and 5 nM of unlabeled RNA NS (unless stated otherwise; see all RNA substrates used in this study in Table 1) and 500 nM of cyclic oligoadenylate mixture or 0.5-500 nM of the HPLC purified cyclic oligoadenylate effectors or 5-500 nM linear oligoadenylate with various phosphorylation levels—linear oligoadenylate 5′-triphosphate (ChemGenes); non-phosphorylated, 3′P (Metabion) or 5′P containing linear oligoadenylates. 5′P-oligoadenylates were obtained by incubating 3.(3) μM of non-phosphorylated linear oligoadenylate with 0.5 U T4 polynucleotide kinase and 1 mM ATP in the Reaction buffer A at 37° C. for 40 min. […]
(FIG. 20A) Domain arrangement of StCsm6′. […] The elution profile of the StCsm6′ is presented with the calculated experimental molecular weight 108.1 kDa, corresponding to protein dimer. […]
Analysis of StCsm6 (FIG. 23A) and StCsm6′ (FIG. 23B) cleavage of ssRNA NS in the absence or presence of synthetic c(AMP)2 (c-di-AMP) (Sigma-Aldrich) or HPLC isolated c(AMP)3, c(AMP)4, c(AMP)5 (synthesized by StCsm from ATP) or c(AMP)6 (synthesized by StCsm from pp(pA)6 precursor). […] Samples were analyzed in denaturing PAAG, followed by phosphorimaging. […]

| SMILES | reaction products formed from the nucleotide alone (ternary StCsm complex) | affinity towards nucleotide [1] | also measured |
| --- | --- | --- | --- |
| Nc1ncnc2c1ncn2[C@H]1C[C@H](O)[C@@H](COP(=O)(O)OP(=O)(O)OP(=O)(O)O)O1 [2′dATP] | reacts with significantly lower efficiency |  | binding affinity, ternary StCsm complex ([1]; target RNA bound (ternary StCsm complex)): visibly decreases |
| Nc1ncnc2c1ncn2[C@@H]1O[C@H](COP(=O)(O)OP(=O)(O)OP(=O)(O)O)C[C@H]1O [3′dATP] | does not produce any reaction products |  |  |
| Nc1ncnc2c1ncn2[C@@H]1O[C@H](COP(=O)(O)O)[C@@H](O)[C@H]1O [AMP, adenosine monophosphate] | yields no products |  |  |
| Nc1ncnc2c1ncn2[C@@H]1O[C@H](COP(=O)(O)OP(=O)(O)OP(=O)(O)O)[C@@H](O)[C@H]1O [ATP, adenosine triphosphate] |  |  | inhibition of StCsm6 RNase (StCsm6; 1 mM ATP): inhibited; pKd ([1]; in the presence or absence of target RNA): 7.70 to 8.00 |
| Nc1ccn([C@@H]2O[C@H](COP(=O)(O)OP(=O)(O)OP(=O)(O)O)[C@@H](O)[C@H]2O)c(=O)n1 [CTP] | no reaction products are formed | no significant affinity |  |
| Nc1nc2c(ncn2[C@@H]2O[C@H](COP(=O)(O)OP(=O)(O)OP(=O)(O)O)[C@@H](O)[C@H]2O)c(=O)[nH]1 [GTP] | no reaction products are formed | no significant affinity |  |
| O=c1ccn([C@@H]2O[C@H](COP(=O)(O)OP(=O)(O)OP(=O)(O)O)[C@@H](O)[C@H]2O)c(=O)[nH]1 [UTP] | no reaction products are formed | no significant affinity |  |
| Nc1ncnc2c1ncn2[C@@H]1O[C@@H]2COP(=O)(O)O[C@H]3[C@@H](O)[C@H](n4cnc5c(N)ncnc54)O[C@@H]3COP(=O)(O)O[C@H]2[C@H]1O [c(AMP)2, c-di-AMP] |  |  | stimulation of StCsm6 ribonuclease activity (StCsm6; ssRNA NS, 37° C. 30 min, 50 nM individual cyclic oligoadenylate): only c(AMP)6 stimulated; stimulation of StCsm6′ ribonuclease activity (StCsm6′): only c(AMP)6 stimulated |
